This passage reports IC50 results from patent US10323022B2, “Pyrrolidinyl urea, pyrrolidinyl thiourea and pyrrolidinyl guanidine compounds as TrkA kinase inhibitors” (Array BioPharma Inc., priority 2011, dated 2019).

The structures appear in SMILES notation. A value given as a limit tells only on which side of the number the result lay.

The target of the assay is TrkA (Homo sapiens (Human), UniProt P04629). The assay can be described thus: TrkA Omnia Assay. Format: biochemical. The conditions noted are these: averaged IC50; 20 nM enzyme, 500 μM ATP, 10 μM peptide substrate. Summed up: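 Recombinant TrkA (20 nM) preincubated 10 min at ambient temperature with compound, then Omnia Tyr Peptide #4 (10 μM) and ATP (500 μM) added in 25 mM MOPS pH 7.5, 5 mM MgCl2, 0.005% Triton X-100. Fluorescence (ex 360/em 485 nm) followed continuously for 70 min; IC50 from initial rates by 4- or 5-parameter logistic fit.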
Sequence of TrkA (P04629 33-796): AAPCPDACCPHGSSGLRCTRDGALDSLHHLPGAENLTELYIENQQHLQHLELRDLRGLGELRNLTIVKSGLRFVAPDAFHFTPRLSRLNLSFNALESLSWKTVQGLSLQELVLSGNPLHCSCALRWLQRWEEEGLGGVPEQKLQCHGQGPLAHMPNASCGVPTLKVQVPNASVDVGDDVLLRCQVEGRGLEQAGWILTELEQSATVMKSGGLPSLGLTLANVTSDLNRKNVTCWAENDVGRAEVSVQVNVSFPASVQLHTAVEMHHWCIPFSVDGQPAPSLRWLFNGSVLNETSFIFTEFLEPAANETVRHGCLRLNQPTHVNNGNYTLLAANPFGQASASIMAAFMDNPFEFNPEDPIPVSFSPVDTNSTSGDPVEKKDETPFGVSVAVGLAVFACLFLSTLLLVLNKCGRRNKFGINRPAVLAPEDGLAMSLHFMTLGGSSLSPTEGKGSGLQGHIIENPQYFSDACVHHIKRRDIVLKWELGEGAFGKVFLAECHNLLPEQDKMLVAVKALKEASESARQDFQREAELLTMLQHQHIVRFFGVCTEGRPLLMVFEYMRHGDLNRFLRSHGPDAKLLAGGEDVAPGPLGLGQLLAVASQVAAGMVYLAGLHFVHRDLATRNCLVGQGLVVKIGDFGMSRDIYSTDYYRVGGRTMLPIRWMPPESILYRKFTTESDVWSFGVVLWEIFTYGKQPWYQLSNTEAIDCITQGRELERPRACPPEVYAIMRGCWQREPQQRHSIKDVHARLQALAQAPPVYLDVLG
Usually IC50 stands for the point on the concentration scale where inhibition reaches its midpoint. `COCCN1C[C@@H](NC(=O)Nc2c(C)c(OC[C@@H](O)CO)nn2-c2ccccc2)[C@H](c2ccc(F)c(F)c2)C1` [Example 177, 1-((3S,4R)-4-(3,4-difluorophenyl)-1-(2-methoxyethyl)pyrrolidin-3-yl)-3-(3-((S)-2,3-dihydroxypropoxy)-4-methyl-1-phenyl-1H-pyrazol-5-yl)urea] had an IC50 of less than 100 nM.

The compound `COCCN1C[C@@H](NC(=O)Nc2c(Br)c(C[C@@H](C)O)nn2-c2ccccc2)[C@H](c2ccc(F)c(F)c2)C1` [Example 414, 1-(4-bromo-3-((R)-2-hydroxypropyl)-1-phenyl-1H-pyrazol-5-yl)-3-((3S,4R)-4-(3,4-difluorophenyl)-1-(2-methoxyethyl)pyrrolidin-3-yl)urea] yielded an IC50 of less than 100 nM.

`CCOC(=O)c1nn(-c2ccccc2)c(NC(=O)N[C@@H]2CN(CCOC)C[C@H]2c2ccc(F)c(F)c2)c1Br` [Example 381, ethyl 4-bromo-5-(3-((3S,4R)-4-(3,4-difluorophenyl)-1-(2-methoxyethyl)pyrrolidin-3-yl)ureido)-1-phenyl-1H-pyrazole-3-carboxylate] displayed an IC50 of less than 100 nM.

For the compound `COCCN1C[C@@H](NC(=O)Nc2c(C)c(OC[C@@H]3COC(C)(C)O3)nn2-c2ccccc2)[C@H](c2cc(F)c(F)c(F)c2)C1` [Example 399, 1-(3-(((R)-2,2-dimethyl-1,3-dioxolan-4-yl)methoxy)-4-methyl-1-phenyl-1H-pyrazol-5-yl)-3-((3S,4R)-1-(2-methoxyethyl)-4-(3,4,5-trifluorophenyl)pyrrolidin-3-yl)urea], the IC50 was less than 100 nM.

For `CCOc1nn(-c2ccccc2)c(NC(=O)N[C@@H]2CN(C(COC)COC)C[C@H]2c2ccc(F)c(F)c2)c1C` [Example 254, 1-((3S,4R)-4-(3,4-difluorophenyl)-1-(1,3-dimethoxypropan-2-yl)pyrrolidin-3-yl)-3-(3-ethoxy-4-methyl-1-phenyl-1H-pyrazol-5-yl)urea], the IC50 was less than 100 nM.

In turn, `CC[C@@H](O)COc1nn(-c2ccccc2)c(NC(=O)N[C@@H]2CN(CCOC)C[C@H]2c2cc(F)cc(F)c2)c1C` [Example 378, 1-((3S,4R)-4-(3,5-difluorophenyl)-1-(2-methoxyethyl)pyrrolidin-3-yl)-3-(3-((R)-2-hydroxybutoxy)-4-methyl-1-phenyl-1H-pyrazol-5-yl)urea] displayed an IC50 of less than 100 nM.

Compound `COCCN1C[C@@H](NC(=O)Nc2c(Cl)c(-c3c(C)noc3C)nn2-c2ccccc2)[C@H](c2ccc(F)c(F)c2)C1` [Example 571, 1-(4-chloro-3-(3,5-dimethylisoxazol-4-yl)-1-phenyl-1H-pyrazol-5-yl)-3-((3S,4R)-4-(3,4-difluorophenyl)-1-(2-methoxyethyl)pyrrolidin-3-yl)urea] gave an IC50 of less than 100 nM.

Consider `COCCN1C[C@@H](NC(=O)Nc2c(C)c(-c3cnn(C)c3)nn2-c2ccccc2)[C@H](c2ccc(Cl)c(F)c2)C1` [Example 466, 1-((3S,4R)-4-(4-chloro-3-fluorophenyl)-1-(2-methoxyethyl)pyrrolidin-3-yl)-3-(1′,4-dimethyl-1-phenyl-1H, 1′H-3,4′-bipyrazol-5-yl)urea], for which the IC50 was less than 100 nM.

In turn, `COCCN1C[C@@H](NC(=O)Nc2c(C)c(-c3nn(C)c(=O)o3)nn2-c2ccccc2)[C@H](c2ccc(F)c(F)c2)C1` [Example 602, 1-((3S,4R)-4-(3,4-difluorophenyl)-1-(2-methoxyethyl)pyrrolidin-3-yl)-3-(4-methyl-3-(4-methyl-5-oxo-4,5-dihydro-1,3,4-oxadiazol-2-yl)-1-phenyl-1H-pyrazol-5-yl)urea] displayed an IC50 of less than 100 nM.

Compound `COCCN1C[C@@H](NC(=O)Nc2c(Cl)c(C3CCOCC3)nn2-c2ccccc2)[C@H](c2ccc(F)c(F)c2)C1` [Example 568, 1-(4-chloro-1-phenyl-3-(tetrahydro-2H-pyran-4-yl)-1H-pyrazol-5-yl)-3-((3S,4R)-4-(3,4-difluorophenyl)-1-(2-methoxyethyl)pyrrolidin-3-yl)urea] showed an IC50 of less than 100 nM.

As to `COCCN1C[C@@H](NC(=O)Nc2cc(OCc3ccccc3)nn2C)[C@H](c2ccc(F)c(F)c2)C1` [Example 136, 1-(3-(benzyloxy)-1-methyl-1H-pyrazol-5-yl)-3-((3S,4R)-4-(3,4-difluorophenyl)-1-(2-methoxyethyl)pyrrolidin-3-yl)urea], the IC50 was in the range of 100 to 1000 nM.

For the compound `COCCN1C[C@@H](NC(=O)Nc2c(C)c(-c3cnn(C)c3C)nn2-c2ccccc2)[C@H](c2ccc(F)c(F)c2)C1` [Example 507, 1-((3S,4R)-4-(3,4-difluorophenyl)-1-(2-methoxyethyl)pyrrolidin-3-yl)-3-(1′,4,5′-trimethyl-1-phenyl-1H,1′H-[3,4′-bipyrazol]-5-yl)urea], the IC50 is less than 100 nM.

`CCOc1nn(-c2ccccc2)c(NC(=O)N[C@@H]2CN(CC(=O)NC)C[C@H]2c2ccc(F)c(F)c2)c1C` [Example 472, 2-((3R,4S)-3-(3,4-difluorophenyl)-4-(3-(3-ethoxy-4-methyl-1-phenyl-1H-pyrazol-5-yl)ureido)pyrrolidin-1-yl)-N-methylacetamide] gave an IC50 of 100 to 1000 nM.

In turn, `Cn1nc(-c2ccccc2)cc1NC(=O)N[C@@H]1CN(CC(F)(F)F)C[C@H]1c1cccc(F)c1` [Example 203, 1-((3S,4R)-4-(3-fluorophenyl)-1-(2,2,2-trifluoroethyl)pyrrolidin-3-yl)-3-(1-methyl-3-phenyl-H-pyrazol-5-yl)urea] came in with an IC50 of 100 to 1000 nM.

Consider `COCCN1C[C@@H](NC(=O)Nc2c(Br)c(-c3cnn(C)c3)nn2-c2ccccc2)[C@H](c2ccc(F)cc2)C1` [Example 421], for which the IC50 is less than 100 nM.

`COCCN1CC(NC(=O)Nc2c3c(nn2-c2ccccc2)CCC3)[C@H](c2cccc(OC)c2)C1` (stereo partly drawn) [Example 48, 1-((3,4-trans)-1-(2-methoxyethyl)-4-(3-methoxyphenyl)pyrrolidin-3-yl)-3-(2-phenyl-2,4,5,6-tetrahydrocyclopenta[c]pyrazol-3-yl)urea] registered an IC50 of 100 to 1000 nM.

As for `COCCN1C[C@@H](NC(=O)Nc2c(C)c(OCCNS(C)(=O)=O)nn2-c2ccccc2)[C@H](c2ccc(F)c(F)c2)C1` [Example 544, N-(2-((5-(3-((3S,4R)-4-(3,4-difluorophenyl)-1-(2-methoxyethyl)pyrrolidin-3-yl)ureido)-4-methyl-1-phenyl-1H-pyrazol-3-yl)oxy)ethyl)methanesulfonamide], the IC50 is less than 100 nM.

`COCCN1C[C@@H](NC(=O)Nc2c(-c3ccccc3)c(C)nn2C)[C@H](c2ccc(F)c(F)c2)C1` [Example 65, 1-((3S,4R)-4-(3,4-difluorophenyl)-1-(2-methoxyethyl)pyrrolidin-3-yl)-3-(1,3-dimethyl-4-phenyl-1H-pyrazol-5-yl) urea] had an IC50 of less than 100 nM.

`COCCN1C[C@@H](NC(=O)Nc2c(C)c(OC[C@H](O)CO)nn2-c2ccccc2)[C@H](c2cc(F)c(F)c(F)c2)C1` [Example 559, 1-(3-((R)-2,3-dihydroxvpropoxy)-4-methyl-1-phenyl-1H-pyrazol-5-yl)-3-((3S,4R)-1-(2-methoxyethyl)-4-(3,4,5-trifluorophenyl)pyrrolidin-3-yl)urea]: the IC50 is less than 100 nM.

Compound `COCCN1C[C@@H](NC(=O)Nc2c(Cl)c(-c3cnn(CCOC)c3)nn2-c2ccccc2)[C@H](c2ccc(F)c(F)c2)C1` [Example 556, 1-(4-chloro-1′-(2-methoxyethyl)-1-phenyl-1H, 1′H-[3,4′-bipyrazol]-5-yl)-3-((3S,4R)-4-(3,4-difluorophenyl)-1-(2-methoxyethyl)pyrrolidin-3-yl)urea] registered an IC50 of less than 100 nM.
